Experimental findings from patent publication US20240360194A1, “New Peptides as Potent and Selective GIP Receptor Agonists” (Sanofi, priority 2021, published 2024) are described below.

A short description of series [1]: Solubility assessment (UHPLC-UV of supernatant, target 10 mg/ml). In kind it is physicochemical. As to conditions: pH 7.4, Soluble amount. The method, boiled down: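 Peptides at 10 mg/ml (purity-corrected) in 100 mM phosphate pH 7.4, optionally with 2.7 mg/ml m-cresol; gentle agitation 1 h, then 5° C. overnight (24 h). Supernatant after 15 min centrifugation at 2500 RCF quantified by UHPLC-UV, with sequence-based extinction coefficients.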

For series [2], the target named is T1, human GLP-1 receptor (hGLP-1R) (Homo sapiens, UniProt P43220). The series can be described thus: In vitro cellular cAMP assay for GLP-1 receptor efficacy (HEK-293 cell line over-expressing receptor). In kind it is cell-based. As to conditions: HEK-293, 0.1% BSA. In general terms: cAMP levels reflect the balance of adenylyl cyclase and phosphodiesterase activity.
T1 sequence (P43220 24-463): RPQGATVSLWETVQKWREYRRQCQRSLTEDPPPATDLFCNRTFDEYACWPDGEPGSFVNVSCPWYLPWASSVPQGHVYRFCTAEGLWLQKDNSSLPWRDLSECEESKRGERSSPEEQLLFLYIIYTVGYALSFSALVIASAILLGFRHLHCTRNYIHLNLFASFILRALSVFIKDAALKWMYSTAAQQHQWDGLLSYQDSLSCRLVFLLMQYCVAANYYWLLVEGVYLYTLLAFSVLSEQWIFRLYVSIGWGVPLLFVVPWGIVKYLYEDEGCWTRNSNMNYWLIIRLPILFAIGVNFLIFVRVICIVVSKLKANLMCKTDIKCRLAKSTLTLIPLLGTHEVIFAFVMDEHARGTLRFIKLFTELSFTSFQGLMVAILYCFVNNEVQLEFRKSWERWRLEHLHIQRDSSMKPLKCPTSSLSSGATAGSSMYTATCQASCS

Series [3] deals with T2, human GIP receptor (hGIPR) (Homo sapiens, UniProt P48546).
T2 sequence (P48546 22-466): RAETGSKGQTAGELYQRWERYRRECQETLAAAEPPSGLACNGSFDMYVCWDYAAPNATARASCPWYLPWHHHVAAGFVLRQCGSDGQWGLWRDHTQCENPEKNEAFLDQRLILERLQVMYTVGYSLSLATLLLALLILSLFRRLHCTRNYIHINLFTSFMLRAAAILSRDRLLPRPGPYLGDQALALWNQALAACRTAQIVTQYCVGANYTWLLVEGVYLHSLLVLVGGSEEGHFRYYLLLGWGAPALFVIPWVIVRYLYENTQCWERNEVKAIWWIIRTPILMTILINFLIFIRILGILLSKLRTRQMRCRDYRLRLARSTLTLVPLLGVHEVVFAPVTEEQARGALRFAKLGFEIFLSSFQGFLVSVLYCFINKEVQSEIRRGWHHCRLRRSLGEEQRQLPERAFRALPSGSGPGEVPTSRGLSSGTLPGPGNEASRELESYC
Put plainly: In vitro cellular cAMP assay for GIP receptor efficacy (HEK-293 cell line over-expressing receptor). In kind it is cell-based. As to conditions: EC50 hGIPR 0.1% BSA, HEK-293, 0.1% BSA.

The target in series [4] is T3, human GIP receptor (Homo sapiens, UniProt P48546).
T3 construct: human adipocytes endogenously expressing the human GIP receptor; host or cells: human preadipocytes (Lonza) differentiated to adipocytes
T3 sequence (P48546 22-466): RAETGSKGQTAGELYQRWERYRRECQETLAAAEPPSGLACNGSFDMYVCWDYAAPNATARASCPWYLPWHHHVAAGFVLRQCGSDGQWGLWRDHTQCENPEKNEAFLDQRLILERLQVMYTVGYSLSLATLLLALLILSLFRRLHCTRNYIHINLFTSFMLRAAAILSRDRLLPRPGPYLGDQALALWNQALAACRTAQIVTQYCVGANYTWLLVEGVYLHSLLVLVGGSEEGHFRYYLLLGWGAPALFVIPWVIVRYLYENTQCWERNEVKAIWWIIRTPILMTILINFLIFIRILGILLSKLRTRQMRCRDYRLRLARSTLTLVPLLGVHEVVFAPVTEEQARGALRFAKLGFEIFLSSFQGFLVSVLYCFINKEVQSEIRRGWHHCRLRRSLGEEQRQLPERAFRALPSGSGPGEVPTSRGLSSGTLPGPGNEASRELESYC
Put plainly: In vitro cellular cAMP assay for GIP receptor efficacy (human adipocytes). In kind it is cell-based. Put shortly: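 cAMP is read by HTRF (665/620 nm ratio, 1 h after reagents in lysis buffer) following 30 min compound exposure at room temperature. Cells are human preadipocyte-derived adipocytes, differentiated 6 days with insulin, dexamethasone, IBMX (200 μM), PPARγ agonist and L-thyroxine, seeded 5000 per well.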

In series [5] the target is T2, human GIP receptor (hGIPR). Put plainly: Binding assay, displacement of [125I]GIP from HEK-293 membranes over-expressing GIPR (SPA). As to conditions: [125I]GIP displacement. Put shortly: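 Membranes from HEK-293 cells over-expressing human GIPR or GLP-1R, isolated by homogenising, sonicating and ultracentrifuging at 100000×g into HEPES/EDTA/NaCl buffer with protease inhibitors, were used for binding.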
(Displacement assays read how much labelled ligand stays bound in the presence of the test substance.)

The target in series [6] is T1, human GLP-1 receptor (hGLP-1R). Put plainly: Binding assay, displacement of [125I]GLP-1 from HEK-293 membranes over-expressing GLP-1R (SPA). As to conditions: [125I]GLP-1 displacement. How it is done:
(1) Preparation of Membranes from HEK-293 Cells Over-Expressing GIPR or GLP-1R
HEK-293 cells recombinantly over-expressing GIPR or GLP-1R were grown to 50% confluency, washed with warm 1×PBS (Gibco) and detached in HEPES/EDTA-buffer (100 mM HEPES pH 7.5, 5 mM EDTA). Cells were harvested by centrifugation at 4° C. and 3000×g and the pellets were stored at −80° C. until further processing.
After thawing on ice, pellets were resuspended in HEPES/EDTA-buffer and homogenized on ice for 1 min using Ultra-Turray T25. After subsequent sonification the cell debris was removed by centrifugation at 1000×g and 4° C. Supernatants were then ultra-centrifuged at 100000×g and 4° C. under vacuum for 30 min. Pellets were resuspended in HEPES/EDTA/NaCl-buffer (20 mM HEPES, 1 mM EDTA, 150 mM NaCl; add 1 Complete Mini Protease inhibitor cocktail to 10 ml buffer) and protein content was determined via BCA-Protein assay.
(2) Measurement of Binding Activity of Test Compounds to Human GIPR or GLP-1R

The target of series [7] is T4, human GIP receptor (human, UniProt P48546 22-466).
T4 sequence (looked up): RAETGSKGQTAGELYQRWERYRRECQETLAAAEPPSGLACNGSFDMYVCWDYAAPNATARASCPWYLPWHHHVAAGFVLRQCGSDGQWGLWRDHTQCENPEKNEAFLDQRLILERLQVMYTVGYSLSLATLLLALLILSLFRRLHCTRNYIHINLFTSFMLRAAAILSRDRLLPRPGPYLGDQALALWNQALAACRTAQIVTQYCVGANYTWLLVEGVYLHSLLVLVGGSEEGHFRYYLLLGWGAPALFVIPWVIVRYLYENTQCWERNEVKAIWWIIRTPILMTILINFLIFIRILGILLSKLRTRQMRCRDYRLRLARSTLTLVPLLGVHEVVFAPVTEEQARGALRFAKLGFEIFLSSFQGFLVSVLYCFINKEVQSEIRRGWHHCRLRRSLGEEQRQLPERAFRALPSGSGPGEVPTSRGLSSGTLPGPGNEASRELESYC
Put plainly: cell-based or functional assay.

The target in series [8] is T5, human GLP-1 receptor (human, UniProt P43220 24-463). The series can be described thus: cell-based or functional assay.
Series [9] addresses T4, human GIP receptor. The series can be described thus: cell-based or functional assay. This is another data set of the same source.
The target in series [10] is T5, human GLP-1 receptor. The series can be described thus: displacement of [125I]GLP-1 from HEK-293 membranes expressing hGLP-1R (SPA beads).

Numbered stars: 1 amine (or outer) side, 2 acyl side, 3 side chain; on linkers, the order of the positions; unused ones are H or OH. Square brackets hold non-standard residues; d marks the D form. Side chains are listed from the residue outwards. Ends that are not written are not given here. * marks the point of attachment. C18 diacid = O=C(O)CCCCCCCCCCCCCCCCC(=O)*; γGlu = O=C(O)[C@H](CCC(=O)[*:2])N[*:1]; AEEA = NCCOCCOCC(=O)O; Aib = CC(C)(N)C(=O)O

For `CC[C@H](C)[C@H](NC(=O)[C@H](Cc1ccccc1)NC(=O)[C@H](CCC(=O)O)NC(=O)C(C)(C)NC(=O)[C@H](CCC(N)=O)NC(=O)[C@H](CCCCNC(=O)COCCOCCNC(=O)COCCOCCNC(=O)CC[C@H](NC(=O)CCCCCCCCCCCCCCCCC(=O)O)C(=O)O)NC(=O)[C@H](CCC(N)=O)NC(=O)[C@H](CCC(=O)O)NC(=O)[C@H](CCC(=O)O)NC(=O)[C@H](CC(C)C)NC(=O)C(C)(C)NC(=O)[C@@H](NC(=O)[C@H](CO)NC(=O)[C@H](CC(C)C)NC(=O)[C@H](CC(=O)O)NC(=O)[C@H](CO)NC(=O)[C@@H](NC(=O)[C@H](Cc1ccccc1)NC(=O)[C@@H](NC(=O)CNC(=O)[C@H](CCC(=O)O)NC(=O)C(C)(C)NC(=O)[C@@H](N)Cc1ccc(O)cc1)[C@@H](C)O)[C@@H](C)CC)[C@@H](C)CC)C(=O)N[C@@H](CCC(=O)O)C(=O)N[C@@H](Cc1c[nH]c2ccccc12)C(=O)N[C@@H](CC(C)C)C(=O)N[C@@H](CC(C)C)C(=O)N[C@@H](C)C(=O)N[C@@H](CCC(N)=O)C(=O)NCC(=O)N1CCC[C@H]1C(=O)N[C@@H](CO)C(=O)N[C@@H](CO)C(=O)NCC(=O)N[C@@H](CCC(=O)O)C(=O)N1CCC[C@H]1C(=O)N1CCC[C@H]1C(=O)N1CCC[C@H]1C(=O)N[C@@H](CO)C(N)=O` [SEQ ID NO: 38, H2N-Y-Aib-E-G-T-F-I-S-D-L-S-I-Aib-L-E-E-Q-K[{AEEA}2-gGlu-C18OH]-Q-Aib-E-F-I-E-W-L-L-A-Q-G-P-S-S-G-E-P-P-P-S-NH2], in series [1], the solubility (usually how much of the substance goes into solution per volume) at 24 h was above 9200 µg/mL. For the same molecule, the EC50 (usually the concentration that produces a half-maximal response) in series [2] was above 10000 pM; in series [3] it was 53.1 pM; on human GIP receptor [4] (read-out: hGIPR EC50) it was 400 pM. For the same molecule, the Emax (usually the size of the effect at its maximum, as opposed to the concentration needed) on human GIP receptor [4] (read-out: hGIPR Emax) came to 92%. In addition, the IC50 (in general, the point on the concentration scale where inhibition reaches its midpoint) in series [5] was found to be 200 pM; in series [6], 73000 pM.

B1: SEQ ID NO: 21 (peptide)
peptide: Y[Aib]EGTFISDLSI[Aib]K([AEEA-AEEA-γGlu-C18 diacid])ERIHQ[Aib]EFIEWLLAQGPSSGAPPPS-NH2
modifications: N-terminus assumed
SMILES: CC[C@H](C)[C@H](NC(=O)[C@H](CCCNC(=N)N)NC(=O)[C@H](CCC(=O)O)NC(=O)[C@H](CCCCNC(=O)COCCOCCNC(=O)COCCOCCNC(=O)CC[C@H](NC(=O)CCCCCCCCCCCCCCCCC(=O)O)C(=O)O)NC(=O)C(C)(C)NC(=O)[C@@H](NC(=O)[C@H](CO)NC(=O)[C@H](CC(C)C)NC(=O)[C@H](CC(=O)O)NC(=O)[C@H](CO)NC(=O)[C@@H](NC(=O)[C@H](Cc1ccccc1)NC(=O)[C@@H](NC(=O)CNC(=O)[C@H](CCC(=O)O)NC(=O)C(C)(C)NC(=O)[C@@H](N)Cc1ccc(O)cc1)[C@@H](C)O)[C@@H](C)CC)[C@@H](C)CC)C(=O)N[C@@H](Cc1c[nH]cn1)C(=O)N[C@@H](CCC(N)=O)C(=O)NC(C)(C)C(=O)N[C@@H](CCC(=O)O)C(=O)N[C@@H](Cc1ccccc1)C(=O)N[C@H](C(=O)N[C@@H](CCC(=O)O)C(=O)N[C@@H](Cc1c[nH]c2ccccc12)C(=O)N[C@@H](CC(C)C)C(=O)N[C@@H](CC(C)C)C(=O)N[C@@H](C)C(=O)N[C@@H](CCC(N)=O)C(=O)NCC(=O)N1CCC[C@H]1C(=O)N[C@@H](CO)C(=O)N[C@@H](CO)C(=O)NCC(=O)N[C@@H](C)C(=O)N1CCC[C@H]1C(=O)N1CCC[C@H]1C(=O)N1CCC[C@H]1C(=O)N[C@@H](CO)C(N)=O)[C@@H](C)CC
notes: Synthetic peptide, 39 residues
In the case of B1, in the series with human GIP receptor [7], the “EC50 hGIPR 0% HSA (cAMP, HEK-293)” value is 0.19 pM and the “EC50 hGIPR 0.1% BSA (cAMP, HEK-293)” value is 8.36 pM. For the same molecule, the “EC50 hGLP-1R 0.1% BSA (cAMP, HEK-293)” value with human GLP-1 receptor [8] was above 10000 pM. In the series with human GIP receptor [9], the “hGIPR EC50 (cAMP, human adipocytes)” value stood at 2800 pM and the “hGIPR Emax (cAMP, human adipocytes)” value amounted to 120%. In addition, the half-inhibitory concentration (IC50) with human GLP-1 receptor [10] turned out to be 146000 pM.
